# From PMC7486940, “Pre-symptomatic Caspase-1 inhibitor delays cognitive decline in a mouse model of Alzheimer disease and aging” (Nature Communications, 2020)
# Columns and labels:
# APP = APP expression and processing (real-time PCR, western blot) in J20 hippocampus; format: in vivo, mouse
# Procedure: (§1) VX-765 (Adooq Bioscience, Irvine, CA, USA) was dissolved 5 mg • ml^−1 in 20% cremophor in dH2O[60] (Sigma-Aldrich, ON, Canada) and administered IPWT and J20 mice received three injections per week of either 50 mg • kg^−1 VX-765 or 20% cremophor vehicle for 4 weeks between 2 and 3 months of age. Mice were longitudinally followed starting 4 weeks after the last injection [4-week washout (WO)], then every other month at 12- and 20-week WO (6 and 8 months of age, respectively). Intermediate 8- and 16-week WO periods were also looked at with a smaller number of mice. After each WO period, animals were randomly chosen, independent of behavioural performance, for sacrifice and assigned to either histological or biochemical analysis (Fig. 2a).
# Mice for biochemical analyses were isoflurane anesthetized, sacrificed by cervical dislocation, and the hippocampus and cortex dissected out and immediately frozen on dry ice. Brain tissue was homogenized in radioimmunoprecipitation assay (RIPA) buffer (50 mM Tris-HCl pH: 7.4, 1% NP-40, 0.25% Na-deoxycholate, 150 mM NaCl, 1 mM EDTA, with protease inhibitors), and supernatants placed in Laemmli (5% 2-β mercaptoethanol with protease inhibitors).
# Twenty to sixty micrograms of protein or 16 μl of precipitated protein from culture medium were separated on SDS-PAGE or 4–12% NuPAGE Bis-Tris gels (Invitrogen, Carlsbad, CA, USA) with MES buffer (Invitrogen) and transferred onto PVDF membranes (Bio-Rad) according to the manufacturer’s instructions. […] Protein levels were normalized to β-actin and expressed as a percentage relative to the vehicle-treated WT group, except for APP which was compared to the vehicle-treated J20 group. […]
# RNA was extracted with Qiazol and purified using the miRNeasy mini kit (Qiagen, CA, USA). RNA quality and quantity were determined using a spectrophotometer (DS-11 FX+, DeNovix, DE, USA) and RNA was reverse transcribed using First Strand cDNA Synthesis Kit (Qiagen) following the manufacturer’s protocol. […]
# Iba1-positive microglia = Iba1-positive microglia quantification and morphology (immunohistochemistry); format: in vivo, mouse
# Procedure: as §1
# Mice for immunohistochemistry were isoflurane anesthetized and perfused with ice-cold 4% paraformaldehyde in 0.1 M PBS (Sigma-Aldrich). Brains were post-fixed overnight in 10% neutral-buffered formalin (ThermoFisher Scientific, ON, Canada) and transferred to 70% ethanol for paraffin embedding and sectioning at 4 μm. Tissue slides underwent heat-induced antigen retrieval with citrate or EDTA buffer. Immunostaining was performed using the Dako Autostainer Plus slide processor and EnVision Flex system (Dako, ON, Canada). Sections were peroxidase treated, blocked in Serum-Free Protein Block, and immunostained with the following antibodies: 1:2000 rabbit anti-Iba1 (Wako, VA, USA), 1:500 rat anti-CD68 (clone FA-11, Bio-Rad, Hercules, CA, USA), 1:8000 rabbit anti-GFAP (Dako) and 1:2000 rabbit anti-Aβ1-40 (F25276, laboratory developed). CD68 antibody required an additional rabbit anti-rat IgG/HRP secondary reagent (Dako) incubation. […] Sections were digitally scanned with MIRAX SCAN (Zeiss, ON, Canada) and used for subsequent analyses.
# Iba1-positive microglia were quantified using a modified version of an area-specific counting frame. The number of Iba1-positive cells per mm^3 in the anterior CA1 region and cortex was estimated across four sections, spaced 60 μm apart. Microglial activation level was determined based on morphological measurements[19],[41]. Aβ1-40 and GFAP immunostaining density was measured across four sections using ImageJ software (NIH, Bethesda, MD, USA). Quantification was blinded to treatment and genotype.
# alpha-synuclein = tested on: alpha-synuclein; set-up: method as in PMID 27482083; details: in vitro; cited from earlier work
smiles,measurement,setting,value
"CCO[C@@H]1OC(=O)C[C@@H]1NC(=O)[C@@H]1CCCN1C(=O)[C@@H](NC(=O)c1ccc(N)c(Cl)c1)C(C)(C)C [VX-765, (S)-1-((S)-2-{[1-(4-amino-3-chloro-phenyl)-methanoyl]-amino}-3,3-dimethyl-butanoyl)-pyrrolidine-2-carboxylic acid ((2R,3S)-2-ethoxy-5-oxo-tetrahydro-furan-3-yl)-amide]",APP protein levels (anti-APP C-terminal antibody),APP; 4- and 20-week WO,not affected
same,βCTF and αCTF levels,"APP; 4- or 20-week WO, vehicle vs VX-765",no differences in βCTF and αCTF levels
same,human APP mRNA levels,"APP; 4-, 12- or 20-week WO",did not alter
same,"type III, amoeboid-appearing, microglia","Iba1-positive microglia; J20, 20-week WO",significantly higher in vehicle- and VX-765-treated J20 mice at 20-week WO
same,duration of reduced microglial activation,Iba1-positive microglia; J20 cortex,≤ 5 months
same,duration of reduced microglial activation,Iba1-positive microglia; J20 hippocampus,up to 4 months
same,microglial morphological profile (type I resting / type II activated),Iba1-positive microglia; J20 hippocampus and cortex,"reverted the profile in J20 mice back to a near WT profile at 4-week WO, but it slowly shifted from a resting to an activated state morphologically similar to vehicle-treated J20 mice from 12-week WO onwards"
same,Iba1-positive microglia numbers,"Iba1-positive microglia; J20 hippocampus and cortex, all WO periods","prevented this increase, normalizing Iba1-positive numbers to near WT levels, although numbers did not reach significance in the hippocampus at 8- and 20-week WO"
same,type IV microglia,"Iba1-positive microglia; J20 hippocampus, 20-week WO",elevated in the hippocampus of VX-765-treated J20 mice at 20-week WO
same,alpha-synuclein toxicity,alpha-synuclein,protect against alpha-synuclein toxicity
